Source: patent US5958683A, “Screening method using the RZR receptor family” (priority 1994, dated 1999)

Tests used:
adjuvant arthritis = details: known to be active or inactive; cited from earlier work
RZR/RORα = biological target: T1, RZR/RORα (Homo sapiens, UniProt P35398); test: CAT reporter assay for ligand induced activation, Drosophila SL-3 cells transfected with RZR/RORα; type: cell-based; details: when applied in the nanomolar range
T1 construct: RZRα is likely the RORalpha4 splice form
T1 sequence (P35398 1-523): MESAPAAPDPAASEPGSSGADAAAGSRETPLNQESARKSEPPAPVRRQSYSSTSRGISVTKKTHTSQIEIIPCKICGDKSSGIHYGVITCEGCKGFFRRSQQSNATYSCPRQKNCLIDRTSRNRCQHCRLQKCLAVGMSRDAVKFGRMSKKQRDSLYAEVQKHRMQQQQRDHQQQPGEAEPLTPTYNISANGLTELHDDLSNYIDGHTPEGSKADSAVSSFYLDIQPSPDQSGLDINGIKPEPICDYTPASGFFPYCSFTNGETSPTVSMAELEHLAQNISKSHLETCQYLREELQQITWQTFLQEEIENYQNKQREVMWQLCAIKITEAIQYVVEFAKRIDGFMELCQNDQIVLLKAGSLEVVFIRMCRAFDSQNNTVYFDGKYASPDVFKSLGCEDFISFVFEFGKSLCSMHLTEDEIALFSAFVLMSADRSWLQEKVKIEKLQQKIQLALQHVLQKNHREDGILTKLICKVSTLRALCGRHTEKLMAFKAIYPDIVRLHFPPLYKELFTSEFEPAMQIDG
Description: After dilution with 0.9 ml Schneider's medium, the liposomes are added to the cells.
The values given in table 1 represent the mean activation of CAT activities measured in three independent experiments, compared to the addition of pure solvent (ethanol).

affinity to the RZR/RORα receptor (RZR/RORα)	SMILES	activity in adjuvant arthritis (adjuvant arthritis)
	CC1=C(/C=C/C(C)=C/C=C/C(C)=C/C(=O)O)C(C)(C)CCC1 [9-cis RA, retinoic acid]	-
	CC1=C(/C=C/C(C)=C/C=C/C(C)=C/C(=O)O)C(C)(C)CCC1 [all trans RA, retinoic acid]	-
high affinity	COc1ccc2[nH]cc(CCNC(C)=O)c2c1 [melatonin]	
	C=C1/C(=C\C=C2/CCC[C@]3(C)[C@@H]([C@H](C)CCCC(C)(C)O)CC[C@@H]23)C[C@@H](O)C[C@@H]1O [vitamin D, 1,25-dihydroxyvitaminD3]	-
